From the supplement of paper PMC10307832

Assays:
Assay in all cases: relative viability (nuclei count vs DMSO), 5 days (fraction); higher = more cells survive
Avagacestat + Lapatinib = compound: NC(=O)[C@@H](CCC(F)(F)F)N(Cc1ccc(-c2ncon2)cc1F)S(=O)(=O)c1ccc(Cl)cc1 [Avagacestat] + CS(=O)(=O)CCNCc1ccc(-c2ccc3ncnc(Nc4ccc(OCc5cccc(F)c5)c(Cl)c4)c3c2)o1 [Lapatinib] (partner 2 µM)
In short: (§1)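 Nuclei were stained with Hoechst during a one-step fixation (final 0.05% Triton X-100, 1% formaldehyde, 1 ug/ml Hoechst) carried out 5 days after dosing, then counted on 4× images. The cells, lung cancer lines in 1536-well plates, had been dosed by pin tool the day after seeding with one drug alone or a fixed anchor-drug dose plus five library-drug doses (not always all listed) in √10 steps. Relative viability is the nuclei count in treated wells divided by that in vehicle wells, and each value is the median of duplicate plates.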

Avagacestat + AZD7762 = compound: NC(=O)[C@@H](CCC(F)(F)F)N(Cc1ccc(-c2ncon2)cc1F)S(=O)(=O)c1ccc(Cl)cc1 [Avagacestat] + NC(=O)Nc1cc(-c2cccc(F)c2)sc1C(=O)N[C@H]1CCCNC1 [AZD7762] (partner 0.2 µM)
In short: as §1

Avagacestat + Decitabine = compound: NC(=O)[C@@H](CCC(F)(F)F)N(Cc1ccc(-c2ncon2)cc1F)S(=O)(=O)c1ccc(Cl)cc1 [Avagacestat] + Nc1ncn([C@H]2C[C@H](O)[C@@H](CO)O2)c(=O)n1 [Decitabine] (partner 2 µM)
In short: as §1

Avagacestat + Olaparib = compound: NC(=O)[C@@H](CCC(F)(F)F)N(Cc1ccc(-c2ncon2)cc1F)S(=O)(=O)c1ccc(Cl)cc1 [Avagacestat] + O=C(c1cc(Cc2n[nH]c(=O)c3ccccc23)ccc1F)N1CCN(C(=O)C2CC2)CC1 [Olaparib] (partner 8 µM)
In short: as §1

Cell Line | relative viability (Avagacestat + Lapatinib; first compound 0.08 µM) | relative viability (Avagacestat + Lapatinib; first compound 0.253 µM) | relative viability (Avagacestat + Lapatinib; first compound 0.8 µM) | relative viability (Avagacestat + Lapatinib; first compound 2.53 µM) | relative viability (Avagacestat + Lapatinib; first compound 8 µM) | relative viability (Avagacestat + AZD7762; first compound 0.08 µM) | relative viability (Avagacestat + AZD7762; first compound 0.253 µM) | relative viability (Avagacestat + AZD7762; first compound 0.8 µM) | relative viability (Avagacestat + AZD7762; first compound 2.53 µM) | relative viability (Avagacestat + AZD7762; first compound 8 µM) | relative viability (Avagacestat + Decitabine; first compound 0.08 µM) | relative viability (Avagacestat + Decitabine; first compound 0.253 µM) | relative viability (Avagacestat + Decitabine; first compound 0.8 µM) | relative viability (Avagacestat + Decitabine; first compound 2.53 µM) | relative viability (Avagacestat + Decitabine; first compound 8 µM) | relative viability (Avagacestat + Olaparib; first compound 0.08 µM) | relative viability (Avagacestat + Olaparib; first compound 0.253 µM) | relative viability (Avagacestat + Olaparib; first compound 0.8 µM) | relative viability (Avagacestat + Olaparib; first compound 2.53 µM) | relative viability (Avagacestat + Olaparib; first compound 8 µM)
HCC-15 | 0.95 | 1.04 | 1.12 | 0.879 | 0.778 | 1.21 | 1.22 | 1.3 | 1.16 | 1.38 | 0.791 | 0.745 | 0.705 | 0.575 | 0.523 | 0.755 | 0.887 | 0.862 | 0.77 | 0.674
HCC-44 | 1.23 | 0.893 | 1.17 | 1.03 | 0.98 | 0.923 | 1.04 | 1.03 | 1.01 | 1.18 | 0.991 | 0.944 | 0.985 | 0.968 | 0.986 | 1.04 | 1.05 | 1.07 | 1.01 | 1
HCC-78 | 0.556 | 0.696 | 1.48 | 0.7 | 0.579 | 0.61 | 0.615 | 0.665 | 0.461 | 0.529 | 0.675 | 0.726 | 0.75 | 0.683 | 0.669 | 0.786 | 0.948 | 0.632 | 0.67 | 0.712
HCC-366 | 1.6 | 1.26 | 1.23 | 1.05 | 1.21 | 0.268 | 0.272 | 0.328 | 0.235 | 0.176 | 0.463 | 0.344 | 0.36 | 0.306 | 0.271 | 0.45 | 0.461 | 0.378 | 0.402 | 0.308
HCC-827 | 0.197 | 0.178 | 0.177 | 0.169 | 0.191 | 0.193 | 0.188 | 0.216 | 0.161 | 0.188 | 0.328 | 0.313 | 0.327 | 0.329 | 0.296 | 0.724 | 0.734 | 0.687 | 0.607 | 0.656
HOP-62 | 1.02 | 0.943 | 0.983 | 0.996 | 1.01 | 0.811 | 0.714 | 0.62 | 0.53 | 0.47 | 0.211 | 0.229 | 0.194 | 0.221 | 0.218 | 0.411 | 0.502 | 0.211 | 0.564 | 0.371
LC-2-ad | 1.04 | 1.16 | 1.03 | 0.996 | 0.867 | 0.947 | 0.927 | 0.843 | 0.761 | 0.616 | 0.837 | 0.839 | 0.867 | 0.833 | 0.776 | 0.853 | 0.794 | 0.826 | 0.783 | 0.679
LCLC-97TM1 | 0.771 | 1.29 | 0.977 | 0.703 | 0.86 | 0.165 | 0.397 | 0.205 | 0.264 | 0.272 | 0.25 | 0.214 | 0.229 | 0.217 | 0.203 | 0.533 | 0.463 | 0.555 | 0.309 | 0.307
LK-2 | 1.13 | 0.985 | 0.785 | 0.521 | 0.76 | 0.408 | 0.384 | 0.41 | 0.4 | 0.291 | 0.413 | 0.269 | 0.256 |  | 0.291 | 0.846 | 0.806 | 0.8 | 0.505 | 0.77
LOU-NH91 | 0.816 | 0.788 | 0.831 | 0.692 | 0.776 | 0.828 | 0.838 | 0.864 | 0.673 | 0.736 | 0.868 | 0.812 | 0.84 | 0.807 | 0.79 | 0.964 | 0.983 | 0.966 | 0.914 | 0.926
LU99A | 1.01 | 1.2 | 1.25 | 1.06 | 1.1 | 0.422 | 0.407 | 0.314 | 0.341 | 0.329 | 0.835 | 0.98 | 0.964 | 0.772 | 0.816 | 0.254 | 0.259 | 0.269 | 0.265 | 0.243
LXF-289 | 0.895 | 0.921 | 0.886 | 0.892 | 0.814 | 1.13 | 1.08 | 1.09 | 1.16 | 0.971 | 0.359 | 0.368 | 0.408 | 0.347 | 0.331 | 1.41 | 1.41 | 1.15 | 1.08 | 1.04
NCI-H23 | 1.61 | 1.29 | 1.17 | 1.05 | 1.32 | 0.227 | 0.229 | 0.219 | 0.282 | 0.225 | 0.416 | 0.316 | 0.308 | 0.328 | 0.272 | 0.302 | 0.316 | 0.315 | 0.335 | 0.296
NCI-H322M | 0.556 | 0.555 | 0.601 | 0.504 | 0.432 | 0.609 | 0.542 | 0.496 | 0.503 | 0.588 | 0.736 | 0.626 | 0.729 | 0.629 | 0.611 | 0.827 | 0.774 | 0.783 | 0.685 | 0.668
NCI-H358 | 0.418 | 0.438 | 0.571 | 0.469 | 0.427 | 0.516 | 0.595 | 0.57 | 0.481 | 0.461 | 0.251 | 0.264 | 0.19 | 0.212 | 0.219 | 0.704 | 0.559 | 0.655 | 0.596 | 0.562
NCI-H460 | 1.16 | 1.49 | 1.58 | 0.916 | 0.726 | 0.768 | 0.87 | 0.863 | 0.682 | 0.608 | 0.628 | 0.703 | 0.481 | 0.417 | 0.419 | 0.549 | 0.565 | 0.532 | 0.385 | 0.36
